SMILES strings stand for the structures.

For this test, the target named is T1, human RORγ-LBD (Homo sapiens, UniProt P51449).
T1 construct: made in house; host or cells: E. coli (BL-21)
T1 sequence (P51449 262-518): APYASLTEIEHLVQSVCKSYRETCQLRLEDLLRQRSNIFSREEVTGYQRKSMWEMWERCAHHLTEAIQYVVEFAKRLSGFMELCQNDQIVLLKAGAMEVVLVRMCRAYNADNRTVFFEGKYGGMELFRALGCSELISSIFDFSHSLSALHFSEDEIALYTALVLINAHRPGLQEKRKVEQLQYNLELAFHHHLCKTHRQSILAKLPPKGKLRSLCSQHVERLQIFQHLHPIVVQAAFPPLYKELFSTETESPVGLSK
Kind of test: ROR gamma coactivator peptide recruitment Alphascreen assay (RORγ-LBD binding to GRIP1 coactivator peptide). In kind it is biochemical. The following applies: 5 nM human RORγ-LBD, 30 nM 7-β-hydroxycholesterol, 50 nM biotinylated GRIP1 coactivator peptide, overnight incubation at room temperature; read-out: result (pIC50, RORγ coactivator peptide recruitment Alphascreen assay) (converted). The method, boiled down: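 Alphascreen proximity read-out after overnight room-temperature incubation, yielding pIC50 from 1-in-2 compound series (2.5% DMSO final). Mixture: 50 nM biotin-GRIP1 peptide, 30 nM 7-β-hydroxycholesterol agonist, 5 nM recombinant 6×His:Flag human RORγ-LBD (aa 262-518), 50 mM HEPES pH 7.4.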
On the technique in general: In Alpha technology, singlet oxygen from a donor bead excites a nearby acceptor bead.
In the case of `C[C@]1(C(=O)O)CC[C@H](n2ncc(C(=O)N(CC(=O)c3c(Cl)cccc3Cl)CC3CCC4(CC3)CC4)c2C(F)(F)F)CC1` [Example 569, trans-4-(4-((2-(2,6-dichlorophenyl)-2-oxoethyl)(spiro[25]oct-6-ylmethyl)carbamoyl)-5-(trifluoromethyl)-1H-pyrazol-1-yl)-1-methylcyclohexanecarboxylic acid], the IC50 was 6760 nM.

With `C[C@@H]1C[C@H](n2ncc(C(=O)N(CC(=O)c3c(Cl)cccc3Cl)CC3CC(C)(C)C3)c2C(F)(F)F)CC[C@@H]1C(=O)O` [Example 570, (1S,2R,4R)-4-(4-((2-(2,6-dichlorophenyl)-2-oxoethyl)((3,3-dimethylcyclobutyl)methyl)carbamoyl)-5-(trifluoromethyl)-1H-pyrazol-1-yl)-2-methylcyclohexanecarboxylic acid], the IC50 is 18.6 nM.

For the molecule `Cc1cc(Cl)c(C(=O)CN(CC2(C)CCCCC2)C(=O)c2cnn([C@H]3CC[C@](C)(C(=O)O)CC3)c2C(F)(F)F)c(Cl)c1` [Example 571, trans-4-(4-((2-(2,6-dichloro-4-methylphenyl)-2-oxoethyl)((1-methylcyclohexyl)methyl)carbamoyl)-5-(trifluoromethyl)-1H-pyrazol-1-yl)-1-methylcyclohexanecarboxylic acid], the IC50 was 1.26 nM.

Turning to `CC(C)(C)CN(C[C@H](O)c1c(Cl)cccc1Cl)C(=O)c1cnn([C@H]2CC[C@H](C(=O)O)CC2)c1C(F)(F)F` [Example 573, trans-4-(4-(((2R)-2-(2,6-dichlorophenyl)-2-hydroxyethyl)(2,2-dimethylpropyl)carbamoyl)-5-(trifluoromethyl)-1H-pyrazol-1-yl)cyclohexanecarboxylic acid], the IC50 is 79.4 nM.

For `CC(C)(C)CN(C[C@@H](O)c1c(Cl)cccc1Cl)C(=O)c1cnn([C@H]2CC[C@H](C(=O)O)CC2)c1C(F)(F)F` [Example 574, trans-4-(4-(((2S)-2-(2,6-dichlorophenyl)-2-hydroxyethyl)(2,2-dimethylpropyl)carbamoyl)-5-(trifluoromethyl)-1H-pyrazol-1-yl)cyclohexanecarboxylic acid], the IC50 was 2570 nM.

As for `COc1cc(Cl)c(C(=O)CN(C(=O)c2cnn([C@H]3CC[C@H](C(=O)O)CC3)c2C(F)(F)F)C2CCC(C)(C)CC2)c(Cl)c1` [Example 575, trans-4-(4-((2-(2,6-dichloro-4-methoxyphenyl)-2-oxoethyl)(4,4-dimethylcyclohexyl)carbamoyl)-5-(trifluoromethyl)-1H-pyrazol-1-yl)cyclohexanecarboxylic acid], the IC50 is 17 nM.

Regarding `C[C@]1(C(=O)O)CC[C@H](n2ncc(C(=O)N3CC4(CC=CC4)C[C@@H]3Cc3c(Cl)cncc3Cl)c2C(F)(F)F)CC1` [Example 576, trans-4-(4-(((3R)-3-((3,5-dichloro-4-pyridinyl)methyl)-2-azaspiro[4.4]non-7-en-2-yl)carbonyl)-5-(trifluoromethyl)-1H-pyrazol-1-yl)-1-methylcyclohexanecarboxylic acid], the IC50 was 34.7 nM.

In the case of `CC1(CN(CC(=O)c2c(Cl)cncc2Cl)C(=O)c2cnn([C@H]3CC[C@](C)(C(=O)O)CC3)c2C(F)(F)F)CC1` [Example 577, trans-4-(4-((2-(3,5-dichloro-4-pyridinyl)-2-oxoethyl)((1-methylcyclopropyl)methyl)carbamoyl)-5-(trifluoromethyl)-1H-pyrazol-1-yl)-1-methylcyclohexanecarboxylic acid], the IC50 is 11.7 nM.

`CC1(C)CC[C@@H]1N(CC(=O)c1c(Cl)cncc1Cl)C(=O)c1cnn([C@H]2CC[C@](C)(C(=O)O)CC2)c1C(F)(F)F` [Example 578, trans-4-(4-((2-(3,5-dichloro-4-pyridinyl)-2-oxoethyl)((1S)-2,2-dimethylcyclobutyl)carbamoyl)-5-(trifluoromethyl)-1H-pyrazol-1-yl)-1-methylcyclohexanecarboxylic acid]: the IC50 is 100 nM.

On to `COc1cc(Cl)c(C(=O)CN(C(=O)c2cnn([C@H]3CC[C@](C)(C(=O)O)CC3)c2C(F)(F)F)C2CCC(C)(C)CC2)c(Cl)c1` [Example 579, trans-4-(4-((2-(2,6-dichloro-4-methoxyphenyl)-2-oxoethyl)(4,4-dimethylcyclohexyl)carbamoyl)-5-(trifluoromethyl)-1H-pyrazol-1-yl)-1-methylcyclohexanecarboxylic acid], for which the IC50 was 4.27 nM.

For the molecule `COc1cc(Cl)c(C(=O)CN(CC2CC(C)(C)C2)C(=O)c2cnn([C@H]3CC[C@H](C(=O)O)CC3)c2C(F)(F)F)c(Cl)c1` [Example 580, trans-4-(4-((2-(2,6-dichloro-4-methoxyphenyl)-2-oxoethyl)((3,3-dimethylcyclobutyl)methyl)carbamoyl)-5-(trifluoromethyl)-1H-pyrazol-1-yl)cyclohexanecarboxylic acid], the IC50 is 5.01 nM.

In the case of `COc1cc(Cl)c(C(=O)CN(CC2CC(C)(C)C2)C(=O)c2cnn([C@H]3CC[C@](C)(C(=O)O)CC3)c2C(F)(F)F)c(Cl)c1` [Example 581], the IC50 is 3.47 nM.

Regarding `C[C@]1(C(=O)O)CC[C@H](n2ncc(C(=O)N3CC4(CCCC4)C[C@@H]3Cc3c(Cl)cncc3Cl)c2C(F)(F)F)CC1` [Example 582, trans-4-(4-(((3R)-3-((3,5-dichloro-4-pyridinyl)methyl)-2-azaspiro[4.4]non-2-yl)carbonyl)-5-(trifluoromethyl)-1H-pyrazol-1-yl)-1-methylcyclohexanecarboxylic acid], the IC50 is 22.9 nM.

Regarding `Cc1cc(Cl)c(C(=O)CN(CC2CC3(CC3)C2)C(=O)c2cnn([C@H]3CC[C@](C)(C(=O)O)CC3)c2C(F)(F)F)c(Cl)c1` [Example 583, trans-4-(4-((2-(2,6-dichloro-4-methylphenyl)-2-oxoethyl)(spiro[2.3]hex-5-ylmethyl)carbamoyl)-5-(trifluoromethyl)-1H-pyrazol-1-yl)-1-methylcyclohexanecarboxylic acid], the IC50 is 2.4 nM.

`COc1cc(Cl)c(C(=O)CN(CC2(F)CCCC2)C(=O)c2cnn([C@H]3CC[C@](C)(C(=O)O)CC3)c2C(F)(F)F)c(Cl)c1` [Example 584, trans-4-(4-((2-(2,6-dichloro-4-methoxyphenyl)-2-oxoethyl)((1-fluorocyclopentyl)methyl)carbamoyl)-5-(trifluoromethyl)-1H-pyrazol-1-yl)-1-methylcyclohexanecarboxylic acid]: the IC50 is 5.75 nM.

For the molecule `CC1(C)CC(CN(CC(=O)c2ccccc2Br)C(=O)c2cnn([C@H]3CC[C@@H](C(=O)O)CC3)c2C(F)(F)F)C1` [Example 585, cis-4-(4-((2-(2-bromophenyl)-2-oxoethyl)((3,3-dimethylcyclobutyl)methyl)carbamoyl)-5-(trifluoromethyl)-1H-pyrazol-1-yl)cyclohexanecarboxylic acid], the IC50 was 69.2 nM.

With `CC1(C)CC(N(CC(=O)c2c(Cl)cncc2Cl)C(=O)c2cnn([C@H]3CC[C@](C)(C(=O)O)CC3)c2C(F)(F)F)C1` [Example 587, trans-4-(4-((2-(3,5-dichloro-4-pyridinyl)-2-oxoethyl)(3,3-dimethylcyclobutyl)carbamoyl)-5-(trifluoromethyl)-1H-pyrazol-1-yl)-1-methylcyclohexanecarboxylic acid], the IC50 was 67.6 nM.

As to `CC1(CN(CC(=O)c2c(Cl)cncc2Cl)C(=O)c2cnn([C@H]3CC[C@](C)(C(=O)O)CC3)c2C(F)(F)F)CCCCC1` [Example 588, trans-4-(4-((2-(3,5-dichloro-4-pyridinyl)-2-oxoethyl)((1-methylcyclohexyl)methyl)carbamoyl)-5-(trifluoromethyl)-1H-pyrazol-1-yl)-1-methylcyclohexanecarboxylic acid], the IC50 is 3.31 nM.

With `CC1(C)CC(CN(CC(=O)c2ccccc2Br)C(=O)c2cnn([C@H]3CC[C@](C)(C(=O)O)CC3)c2C(F)(F)F)C1` [Example 589, trans-4-(4-((2-(2-bromophenyl)-2-oxoethyl)((3,3-dimethylcyclobutyl)methyl)carbamoyl)-5-(trifluoromethyl)-1H-pyrazol-1-yl)-1-methylcyclohexanecarboxylic acid], the IC50 was 42.7 nM.

As to `COc1cc(Cl)c(C(=O)CN(CC2(F)CCCC2)C(=O)c2cnn([C@H]3CC[C@@H](C(=O)O)CC3)c2C(F)(F)F)c(Cl)c1` [Example 590, cis-4-(4-((2-(2,6-dichloro-4-methoxyphenyl)-2-oxoethyl)((1-fluorocyclopentyl)methyl)carbamoyl)-5-(trifluoromethyl)-1H-pyrazol-1-yl)cyclohexanecarboxylic acid], the IC50 was 174 nM.

On to `CC1(CN(CCc2c(Cl)cncc2Cl)C(=O)c2cnn([C@H]3CC[C@](C)(C(=O)O)CC3)c2C(F)(F)F)CCCC1` [Example 591, trans-4-(4-((2-(3,5-dichloro-4-pyridinyl)ethyl)((1-methylcyclopentyl)methyl)carbamoyl)-5-(trifluoromethyl)-1H-pyrazol-1-yl)-1-methylcyclohexanecarboxylic acid], for which the IC50 was 2.09 nM.

With `C[C@]1(C(=O)O)CC[C@H](n2ncc(C(=O)N(CC(=O)c3c(Cl)cncc3Cl)CC3CCCC3)c2C(F)(F)F)CC1` [Example 592, trans-4-(4-((cyclopentylmethyl)(2-(3,5-dichloro-4-pyridinyl)-2-oxoethyl)carbamoyl)-5-(trifluoromethyl)-1H-pyrazol-1-yl)-1-methylcyclohexanecarboxylic acid], the IC50 is 6.76 nM.

The values above are taken from patent US9365522B2, “Pyrazole amide derivative” (AMGEN INC., priority 2015, dated 2016).
